From patent US11497788B2, “Supramolecular glycosaminoglycans” (Northwestern University, priority 2015, dated 2022) come the findings set out here.

Assay [1] has as its system EHBMP-2 (BMP-2 mutated at the N-terminal heparin-binding domain) in C2C12 cells. The experiment in a line: ALP activity in C2C12 cells with mutant EHBMP-2. The assay is classed as cell-based, mouse. Particulars: mutant BMP-2 with negligible heparin binding. As to the method:
C2C12 Cell Culture: C2C12 mouse myoblasts (ATCC) were maintained in Dulbecco's Modified Eagle's Medium with high glucose and L-glutamine (DMEM, ATCC), supplemented with 100 U/mL of penicillin and 100 μg/mL streptomycin (P/S, Life Technologies) and 10% heat inactivated FBS (Life Technologies), and passaged at 80-90% confluence. Media was changed every 2 days. Passages 3 to 8 were used for experiments. Cells were grown at 37° C., 5% CO2 in a humidified atmosphere. Cells were detached following a 3 minute incubation at 37° C. with 0.05% Trypsin-EDTA (Life Technologies), then resuspended in DMEM (10% FBS). Unless stated otherwise, cells were seeded at 75,000 cells/mL (400 μL/well in a 48-well plate), and allowed to attach for a minimum of 3 hours prior to experiments.
C2C12 Osteoblast Differentiation: PA samples were thermally annealed as described for Cryo-TEM. PA solutions were spun down, pipetted for homogeneous mixing, then diluted to 1 mM with DMEM (no FBS). […] Cells were cultured for 3 days without changing the media, and osteoblast differentiation was assessed.
Alkaline Phosphatase Activity: Alkaline phosphatase (ALP) activity was measured as a marker of osteoblast differentiation (ref. 38; incorporated by reference in its entirety). […] The ALP activity was assessed by reading the OD at 630 nm with Cytation3 microplate reader (BioTek). […]

The target in a further assay is T1, BMP-2 (Homo sapiens, UniProt P12643).
T1 construct: purchased Medtronic Sofamor Danek (Minneapolis, Minn.)
T1 sequence (P12643 283-396): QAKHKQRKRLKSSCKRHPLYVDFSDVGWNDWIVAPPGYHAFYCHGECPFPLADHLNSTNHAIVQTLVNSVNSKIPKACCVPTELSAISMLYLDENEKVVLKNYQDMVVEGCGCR
The experiment in a line: Confocal fluorescence imaging of Cy5-labeled BMP-2 with PA nanofibers. Particulars: co-assembled with Cy3-PA 5 mol %; mixed 24 h. It is filed as binding. As to the method:
Confocal Fluorescence Imaging: PA 1, PA 4, and Cy3-PA were dissolved to 6.6 mM in saline with 6.6 mM CaCl2, pH 7.2. […] Following, PA solutions were mixed with Cy5-BMP-2 (57 μM) at 10:1 vol. ratio to yield [PA]=6 mM and [BMP-2]=5.2 μM, and incubated overnight. For confocal imaging, 20 μl of the solutions containing Cy5-labeled protein and Cy3-Labeled PA nanofibers were coverslipped in IMMU-MOUNT (Termo Scientific) and visualized using a Nikon A1R confocal laser-scanning microscope with GaAsP detectors.

The test system of assay [2] is rat posterolateral lumbar intertransverse spinal fusion model. In words: Rat posterolateral lumbar intertransverse spinal fusion model. It is filed as in vivo. As to the method: Rat Posterolateral Lumbar Intertransverse Spinal Fusion: The study was approved by and conducted in line with the Institutional Animal Care and Use Committee (IACUC) policies and procedures. […] female Sprague-Dawley rats at ages 12-16 weeks were utilized. Animals were assigned to the following treatment groups: 1) 100 ng BMP-2, n=8; 2) 100 ng BMP-2 with PA 4 nanofibers, n=12; and 3) 100 ng BMP-2 with PA 1 nanofibers, n=12. The denoted BMP-2 dose refers to total growth factor amount implanted via two absorbable collagen sponges per animal. For instance, in the 100 ng BMP-2 control group, two collagen sponges (1.75×0.5×0.5 cm) were each impregnated with 50 ng BMP-2 in 100 uL saline containing 6 mM CaCl2, then implanted adjoining the L4-L5 transverse processes on either side of the spine. For PA groups, 100 uL of PA solutions (6 mM) were used in place of saline.
PA solutions were spun down, pipetted for homogeneous mixing, then mixed with BMP-2 at 10:1 vol. ratio to yield 6 mM PA with appropriate BMP-2 concentrations.
Surgical Procedures: Rats were maintained on a heating pad under continuous anesthesia with an isoflurane inhalational anesthetic delivery system, and they were monitored by an assistant for cardiac or respiratory difficulties throughout the procedure. Utilizing a previously-described surgical technique (refs. 23, 41; incorporated by reference in their entireties), the L4 and L5 transverse processes were exposed, irrigated with sterile gentamicin/saline solution, the superficial cortical layer decorticated with a high-speed burr, then collagen sponges with appropriate treatments were implanted bilaterally in the paraspinal musculature between the transverse processes. Afterwards, the fascia and skin incisions were closed, and rats were housed in separate cages.
Manual Palpation: Fusion was assessed via manual palpation following euthanasia at 8 weeks post-surgery. Spines were scored by three blinded observers using a previously established scoring system: 0=no bridging; 1=unilateral bridging; and 2=bilateral bridging (23, 41). To assess fusion rate, spines that received an average score of 1.0 or greater were considered successfully fused.
Micro-Computed Tomography: Synchrotron micro-computed tomography (μCT) was performed on representative samples at station 2-BM of the APS (42, 43). Due to the size constraint of the μCT set-up, harvested spines were sagittally cut along the midline of the vertebrate body, using a slow-speed diamond saw (ref. 43; incorporated by reference in its entirety). Data were acquired with 27 keV photons, projections were recorded every 0.12° over 180°, and reconstruction was on a 2,048×2,048 grid with isotropic 1.45 μm voxels using TomoPy (44). […]

“3,4,6S-GlcNAc PA (VVAAEEK) [PA 1, glycosylated peptide amphiphile: Alkyne PA click-conjugated with trisulfated monosaccharide 1]”: in assay [1], the “ALP expression using EHBMP-2” value is listed as “minimally affected”. The “colocalization of Cy5-labeled BMP-2 with PA nanofibers” value in the assay with BMP-2 was “strong colocalization”. Also, the “fusion scores, blind manual palpation” value in assay [2] (100 ng BMP-2, 6 mM PA, 8 weeks, relative to PA 4 nanofibers or saline) was “highest fusion scores”. The substance further returned a fusion rate in assay [2] (100 ng BMP-2, 6 mM PA, 8 weeks, score ≥1 = fused) of 100%. The “new bone formation, synchrotron micro-computed tomography” value in assay [2] (100 ng BMP-2 delivered with nanofibers) is listed as “formation of new bone connecting the transverse processes”. Moreover, in assay [2] (100 ng versus 10 μg BMP-2 required in the model), the “reduction of required GF (BMP-2) for spinal fusion” value was 100 fold.
